Measured values from patent publication US20160324992A1, “IDENTIFICATION AND TREATMENT OF VULNERABLE PLAQUES” (OTTAWA HEART INSTITUTE RESEARCH CORPORATION, priority 2015, published 2016).
Where “and” joins values, the source holds several entries; their conditions need not be identical. Equal entries are not always repeated.

System: ApoE−/− mice with established atherosclerosis
Assay: Atherosclerosis study: time-release pellets in Western diet fed ApoE−/− mice
Type: in vivo, mouse
Procedure: Atherosclerosis Studies. All animal experiments were performed in accordance with the Animal Care and Use Committee, University of Ottawa, Canada. Eight week old Apo E^−/− mice (total n=17 mice) were fed an adjusted calories diet (21% fat; 0.2% cholesterol, Harlan Teklad) for 4 weeks to induce atherosclerotic progression. Mice were then injected with time-release placebo or Nec-1s tablets (2 mg/kg/day), which were synthesized by Innovative Research of America, USA. Mice were euthanized after 6 weeks of treatment, perfused with saline and aortic roots were embedded in OCT medium and frozen. Aortic roots were sectioned (10 μm) and stained with hematoxylin and eosin for lesion area and necrotic core quantification, and a minimum of 10 sections per animal were measured across the length of the entire aortic root. For en face aortic lesion quantifications, aortas were dissected removing all branching vessels down to the femoral bifurcation and then sliced ventrally and images of aortas were digitally captured using ImagePro™. Lesion areas within the entire length of the aorta were quantified using Image J™ and expressed relative to the total aortic surface area. Immunohistochemistry for vascular smooth muscle cells was performed using a primary antibody for a-smooth muscle actin (monoclonal, Sigma) conjugated to alkaline phosphatase and visualized using SigmaFAST Red (Sigma). Statistical significance between the two groups were analyzed using Students' t-test (p<0.05).
Atherosclerosis Studies. All animal experiments were performed in accordance with the Animal Care and Use Committee, University of Ottawa, Canada. Eight week old apoE−/− mice (total n=17 mice) were fed an adjusted calories diet (21% fat; 0.2% cholesterol, Harlan Teklad) for 4 weeks to induce atherosclerotic progression. Mice were then injected with time-release placebo or stable Necrostatin-1 (Nec-1)15 tablets (2 mg/kg/day), which were synthesized by Innovative Research of America, USA. Mice were euthanized after 6 weeks of treatment, perfused with saline and aortic roots were embedded in OCT medium and frozen. Aortic roots were sectioned (10 μm) and stained with hematoxylin and eosin for lesion area and necrotic core quantification, and a minimum of 10 sections per animal were measured across the length of the entire aortic root. For en face aortic lesion quantifications, aortas were dissected removing all branching vessels down to the femoral bifurcation and then sliced ventrally and images of aortas were digitally captured using ImageProTM. Lesion areas within the entire length of the aorta were quantified using Image JTM and expressed relative to the total aortic surface area. Immunohistochemistry to visualize macrophages and smooth muscle cells was performed using primary antibodies to CD68 (rat monoclonal, Serotec) or phosho-MLKL (rabbit polyclonal, Abcam) with a secondary conjugated to biotin and α-smooth muscle actin (monoclonal, Sigma) conjugated to alkaline phosphatase and visualized using DAB or SigmaFAST Red (Sigma), respectively. Image J was used to quantify positive staining area and statistical significance between the two groups were analyzed using Students' t-test (p<0.05)

`CN1C(=O)C(Cc2c[nH]c3ccccc23)NC1=S` (stereo not shown) [Nec-1, necrostatin-1] was tested, and the “body weight (in words)” value (2 mg/kg/day, 6 weeks, data not shown) was “not affected”, the “CD68+ macrophage area, % of lesion area” value (2 mg/kg/day, 6 weeks, placebo 34.4%±3.2, p=ns) was 43.5%±3.7 and the “increase of smooth muscle actin area within the aortic sinus” value (2 mg/kg/day, 6 weeks, vs placebo) was 70%. The “atherosclerotic lesion area versus placebo (in words)” value (Western diet 4 weeks then 2 mg/kg/day for 6 weeks) was “reduced lesion area in the aortic sinus and aorta”, the “reduction of aortic root lesion area compared to controls” value (Western diet, 2 mg/kg/day, 6 weeks) was 27% and the “aortic root lesion area” value (Western diet, 2 mg/kg/day, 6 weeks, placebo 0.50±0.03 mm^2) was 0.37±0.05 mm^2. For the same molecule, the “en face lesion area as a % of total aorta area” value (Western diet, 2 mg/kg/day, 6 weeks, placebo 9.9±0.9%) was 3.1±0.3%, the “reduction of en face lesion burden compared to placebo” value (Western diet, time-release pellet 2 mg/kg/day, 6 weeks, ascending and descending aorta) was 68% and the “reduction of pMLKL positive area compared to placebo controls” value (aortic sinus lesions, 2 mg/kg/day, 6 weeks) was 63%. The “reduction of lesion necrotic core area compared to placebo” value (aortic sinus, 2 mg/kg/day, 6 weeks) was 62.6% and 62%.
